pIC50: −log10 of the molar value.

From patent US20240270736A1, “MACROCYCLIC HETEROCYCLES AND USES THEREOF” (Kumquat Biosciences Inc., priority 2022, published 2024) come the findings set out here.

What all share (assay type): binding
One assay has as its target T1, wildtype KRAS (Homo sapiens, UniProt P01116).
T1 construct: made in house; host or cells: E. coli, e.g. BL21 (DE3)
Kind of assay: HTRF assay, interaction of wildtype KRAS with SOS1. The conditions noted are these: Ras::SOS1 interaction, read-out: Inhibition of KRAS WT (IC50). The text has this: (§1) This assay can be also used to assess a selective inhibition or reduction of signaling output of a mutant Ras protein relative to a wildtype, or relative to a different mutant Ras protein. For example, the equilibrium interaction of wildtype Kras or K-Ras mutant (e.g., wildtype or a mutant thereof) with SOS1 (e.g., hSOS1) can be assessed as a proxy or an indication for a subject compound's ability to bind and inhibit Ras protein. The HTRF assay detects from (i) a fluorescence resonance energy transfer (FRET) donor (e.g., antiGST-Europium) that is bound to GST-tagged K-Ras mutant to (ii) a FRET acceptor (e.g., anti-6His-XL665) bound to a His-tagged hSOS1.
(§2) The assay buffer can contain ˜5 mM HEPES pH 7.4, ˜150 mM NaCl, ˜ 1 mM DTT, 0.05% BSA and 0.0025% (v/v) Igepal. A Ras working solution is prepared in an assay buffer containing typically a suitable amount of the protein construct (e.g., GST-tagged K-Ras mutant) and the FRET donor (e.g., antiGST-Eu(K) from Cisbio, France). A SOS1 working solution is prepared in an assay buffer containing suitable amount of the protein construct (e.g., His-hSOS1) and the FRET acceptor (e.g., anti-6His-XL665 from Cisbio, France). A suitable amount of the protein construct will depend on the range of activity or range of IC50 values being detected or under investigation. For detecting an IC50 within a range of 500 nM, the protein constructs of the same range of molarity can be utilized.
(§3) A fixed volume of DMSO with or without test compound is transferred into a 384-well plate. Ras working solution is added to all wells of the test plate. SOS1 working solution is added to all wells except for those that are subsequently filled with inhibitor control solution. Upon incubation for about 10 minutes or longer, the fluorescence is measured with a M1000Pro plate reader (Tecan) using HTRF detection (excitation 337 nm, emission 1: 620 nm, emission 2: 665 nm). Compounds are tested in duplicate at different concentrations (for example, 10 μM, 2.5 μM, 0.63 μM, 0.16 μM, 0.04 μM, 0.01 μM test compound). The ratiometric data (i.e., emission 2 divided by emission 1) is used to calculate IC50 values against Ras using GraphPad Prism (GraphPad software). Signaling output measured in terms of IC50 values can be obtained and a ratio of IC50 against one mutant relative to another mutant can be calculated. For instance, a selective reduction of K-Ras G12D signaling output can be evidenced by a ratio greater than one. In particular, a selective reduction of K-Ras G12D signaling relative to K-Ras WT signaling is evidenced if the ratio of IC50 (against K-Ras WT) to IC50 (against K-Ras G12D) is greater than 1.

The target of a further assay is T2, KRAS G12D (Homo sapiens, UniProt P01116, G12D).
T2 construct: made in house; host or cells: E. coli, e.g. BL21 (DE3)
T2 sequence (P01116 1-188 isoform P01116-2 G12D): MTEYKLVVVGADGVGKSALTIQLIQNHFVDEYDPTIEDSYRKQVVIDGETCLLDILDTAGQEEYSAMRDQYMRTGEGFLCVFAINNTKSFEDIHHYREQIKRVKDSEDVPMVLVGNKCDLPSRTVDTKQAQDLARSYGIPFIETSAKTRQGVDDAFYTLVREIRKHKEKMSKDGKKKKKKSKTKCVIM
Kind of assay: HTRF assay, interaction of KRAS G12D with SOS1. The conditions noted are these: Ras::SOS1 interaction, read-out: Inhibition of KRAS G12D (IC50).
Excerpt: as §1, §2, §3

The target of the next assay is T3, KRAS G12V (Homo sapiens, UniProt P01116, G12V).
T3 construct: made in house; host or cells: E. coli, e.g. BL21 (DE3)
T3 sequence (P01116 1-188 isoform P01116-2 G12V): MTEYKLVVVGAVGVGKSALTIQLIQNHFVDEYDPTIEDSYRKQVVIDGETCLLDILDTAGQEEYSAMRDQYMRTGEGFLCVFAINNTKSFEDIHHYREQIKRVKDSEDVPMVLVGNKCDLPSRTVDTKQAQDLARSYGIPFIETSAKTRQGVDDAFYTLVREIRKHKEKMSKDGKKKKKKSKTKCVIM
The assay is described as follows: HTRF assay, interaction of KRAS G12V with SOS1. The conditions noted are these: Ras::SOS1 interaction, read-out: Inhibition of KRAS G12V (IC50).
Excerpt: as §1, §2, §3

T1 sequence (P01116 1-188 isoform P01116-2): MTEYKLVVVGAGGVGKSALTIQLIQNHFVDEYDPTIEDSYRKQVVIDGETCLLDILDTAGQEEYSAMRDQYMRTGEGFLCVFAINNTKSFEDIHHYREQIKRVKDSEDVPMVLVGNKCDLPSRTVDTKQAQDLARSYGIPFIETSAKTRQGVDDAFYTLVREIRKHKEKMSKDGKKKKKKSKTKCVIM

Regarding `CN(C)CC1CC=CCCN2c3nc(nc4c(F)c(-c5ccc(F)c6sc(N)c(C#N)c56)c(Cl)c(c34)OC[C@@H]2C(F)F)O1` (mixture of isomers) [Compound 107, 2-amino-4-((11R)-14-chloro-11-(difluoromethyl)-4-((dimethylamino)methyl)-16-fluoro-4,5,8,9,11,12-hexahydro-2,17-(azeno)benzo[6,7][1,4]oxazepino[5,4-d][1]oxa[3,5]diazacycloundecin-15-yl)-7-fluorobenzo[b]thiophene-3-carbonitrile], the pIC50 at wildtype KRAS and on KRAS G12D was not below 5.30 throughout.

Regarding `C[C@H]1COc2c(Cl)c(-c3ccc(F)c4sc(N)c(C#N)c34)c(F)c3nc4nc(c23)N1CCC=CCC(CN(C)C)O4` (mixture of isomers) [Compound 150, 2-amino-4-((11S)-14-chloro-4-((dimethylamino)methyl)-16-fluoro-11-methyl-4,5,8,9,11,12-hexahydro-2,17-(azeno)benzo[6,7][1,4]oxazepino[5,4-d][1]oxa[3,5]diazacycloundecin-15-yl)-7-fluorobenzo[b]thiophene-3-carbonitrile], the negative-log IC50 (pIC50) on wildtype KRAS, at KRAS G12D and on KRAS G12V was not below 5.30 throughout.

Regarding `C[C@H]1COc2c(Cl)c(-c3ccc(F)c4sc(N)c(C#N)c34)c(F)c3nc4nc(c23)N1CCC=CCC(CN(C)C)O4` (single isomer, unassigned) [Compound 103], the pIC50 on wildtype KRAS, on KRAS G12D and at KRAS G12V was not below 5.30 in each case.

`CN1C[C@@H]2C[C@H]1COc1nc3c4c(c(Cl)c(-c5ccc(F)c6sc(N)c(C#N)c56)c(F)c4n1)OCCN3CCCO2` (single isomer, unassigned) [Compound 135]: the pIC50 at wildtype KRAS, on KRAS G12D and at KRAS G12V was not below 5.30 throughout.

As for `CN(C)CCC1CC=CCCN2CCOc3c(Cl)c(-c4ccc(F)c5sc(N)c(C#N)c45)c(F)c4nc(nc2c34)O1` (single isomer, unassigned) [Compound 148, 2-amino-4-(14-chloro-4-(2-(dimethylamino)ethyl)-16-fluoro-4,5,8,9,11,12-hexahydro-2,17-(azeno)benzo[6,7][1,4]oxazepino[5,4-d][1]oxa[3,5]diazacycloundecin-15-yl)-7-fluorobenzo[b]thiophene-3-carbonitrile], the pIC50 at wildtype KRAS, at KRAS G12D and on KRAS G12V was not below 5.30 each time.

Take `CN(C)CC1CC/C=C/CCN2CCOc3c(Cl)c(-c4ccc(F)c5sc(N)c(C#N)c45)c(F)c4nc(nc2c34)O1` (stereo not shown) [Compound 101, (E)-2-amino-4-(15-chloro-4-((dimethylamino)methyl)-17-fluoro-5,6,9,10,12,13-hexahydro-4H-2,18-(azeno)benzo[6,7][1,4]oxazepino[5,4-d][1]oxa[3,5]diazacyclododecin-16-yl)-7-fluorobenzo[b]thiophene-3-carbonitrile]: the pIC50 at wildtype KRAS, on KRAS G12D and at KRAS G12V was not below 5.30 in each case.

Turning to `CN(C)[C@@H]1CNC(=O)CCN2CCOc3c(Cl)c(-c4ccc(F)c5sc(N)c(C#N)c45)c(F)c4nc(nc2c34)OC1` [Compound 104, 2-amino-4-((5R)-15-chloro-5-(dimethylamino)-17-fluoro-8-oxo-5,6,7,8,9,10,12,13-octahydro-4H-2,18-(azeno)benzo[6,7][1,4]oxazepino[5,4-d][1]oxa[3,5,9]triazacyclododecin-16-yl)-7-fluorobenzo[b]thiophene-3-carbonitrile], the negative-log IC50 (pIC50) on wildtype KRAS, on KRAS G12D and at KRAS G12V was not below 5.30 in each case.

In the case of `CN(C)CC1/C=C/CCN2CCOc3c(Cl)c(-c4ccc(F)c5sc(N)c(C#N)c45)c(F)c4nc(nc2c34)OC1` (stereo not shown) [Compound 110, (E)-2-amino-4-(14-chloro-5-((dimethylamino)methyl)-16-fluoro-4,5,8,9,11,12-hexahydro-2,17-(azeno)benzo[6,7][1,4]oxazepino[5,4-d][1]oxa[3,5]diazacycloundecin-15-yl)-7-fluorobenzo[b]thiophene-3-carbonitrile], the pIC50 on wildtype KRAS, on KRAS G12D and at KRAS G12V was not below 5.30 throughout.

Turning to `N#Cc1c(N)sc2c(F)ccc(-c3c(Cl)c4c5c6nc(nc5c3F)OCCNC(=O)CCN6CCO4)c12` [Compound 112, 2-amino-4-(14-chloro-16-fluoro-7-oxo-4,5,6,7,8,9,11,12-octahydro-2,17-(azeno)benzo[6,7][1,4]oxazepino[5,4-d][1]oxa[3,5,9]triazacycloundecin-15-yl)-7-fluorobenzo[b]thiophene-3-carbonitrile], the negative-log IC50 (pIC50) at wildtype KRAS, on KRAS G12D and on KRAS G12V was not below 5.30 each time.

`CN1CCCCOc2nc3c4c(c(Cl)c(-c5ccc(F)c6sc(N)c(C#N)c56)c(F)c4n2)OCCN3CCCC1` [Compound 113, 2-amino-4-(17-chloro-19-fluoro-8-methyl-5,6,7,8,9,10,11,12,14,15-decahydro-4H-2,20-(azeno)benzo[6,7][1,4]oxazepino[5,4-d][1]oxa[3,5,10]triazacyclotetradecin-18-yl)-7-fluorobenzo[b]thiophene-3-carbonitrile]: on KRAS G12V, the pIC50 is not below 5.30.

Turning to `CN(C)CC1CC=CCCN2c3nc(nc4c(F)c(-c5ccc(F)c6sc(N)c(C#N)c56)c(Cl)c(c34)OC[C@@H]2C(F)F)O1` (stereo partly drawn) [Compound 115, 2-amino-4-((11R)-14-chloro-11-(difluoromethyl)-4-((dimethylamino)methyl)-16-fluoro-4,5,8,9,11,12-hexahydro-2,17-(azeno)benzo[6,7][1,4]oxazepino[5,4-d][1]oxa[3,5]diazacycloundecin-15-y1)-7-fluorobenzo[b]thiophene-3-carbonitrile], at KRAS G12V, the pIC50 is not below 5.30.

In the case of `CN(C)CC1CC=CCCN2CCOc3c(Cl)c(-c4ccc(F)c5sc(N)c(C#N)c45)c(F)c4nc(nc2c34)O1` (stereo not shown) [Compound 116, 2-amino-4-(14-chloro-4-((dimethylamino)methyl)-16-fluoro-4,5,8,9,11,12-hexahydro-2,17-(azeno)benzo[6,7][1,4]oxazepino[5,4-d][1]oxa[3,5]diazacycloundecin-15-yl)-7-fluorobenzo[b]thiophene-3-carbonitrile], the pIC50 at wildtype KRAS, at KRAS G12D and at KRAS G12V was not below 5.30 throughout.

As for `CN(C)CC1CCCCCCN2CCOc3c(Cl)c(-c4ccc(F)c5sc(N)c(C#N)c45)c(F)c4nc(nc2c34)O1` (stereo not shown) [Compound 117, 2-amino-4-(15-chloro-4-((dimethylamino)methyl)-17-fluoro-5,6,7,8,9,10,12,13-octahydro-4H-2,18-(azeno)benzo[6,7][1,4]oxazepino[5,4-d][1]oxa[3,5]diazacyclododecin-16-yl)-7-fluorobenzo[b]thiophene-3-carbonitrile], the pIC50 on wildtype KRAS, at KRAS G12D and on KRAS G12V was not below 5.30 throughout.

Turning to `CN(C)C[C@H]1CCNC(=O)CCN2CCOc3c(Cl)c(-c4ccc(F)c5sc(N)c(C#N)c45)c(F)c4nc(nc2c34)O1` [Compound 123, 2-amino-4-((4R)-15-chloro-4-((dimethylamino)methyl)-17-fluoro-8-oxo-5,6,7,8,9,10,12,13-octahydro-4H-2,18-(azeno)benzo[6,7][1,4]oxazepino[5,4-d][1]oxa[3,5,9]triazacyclododecin-16-yl)-7-fluorobenzo[b]thiophene-3-carbonitrile], the pIC50 on wildtype KRAS, on KRAS G12D and at KRAS G12V was not below 5.30 throughout.
